The values below come from patent US20110046056A1, “APOA-1 PEPTIDE MIMETICS” (priority 2007, published 2011).

The target in assay [1] is T1, ABCA1 cholesterol transporter protein (Mus musculus, UniProt P41233).
T1 construct: endogenous in cells
Description: ABCA1-dependent cholesterol efflux from RAW mouse macrophage cells (in vitro RCT assay). In kind it is cell-based. The conditions noted are these: for EC50: read-out: EC50 in the cholesterol efflux assay (RCT in vitro assay). From the text:
Peptides of the present invention were designed based on amphipathic properties and their abilities to solubilize phospholipids and promote cholesterol efflux. The most direct functional measurement of efficacy for the ApoA-1 peptide mimetic is its capacity to improve the efflux of cholesterol from the cell. The RAW and J774 cell lines are reliable mouse macrophage cell lines frequently used in the art for this purpose. […] The RAW cell line is preferred and recited in the description below.
In the present assay, the RAW cells are plated at 1.5×10^5 cells/200 μl/well/48-well plate in DMEM complete medium (with 10% FBS from INVITROGEN and 1% penicillin-streptomycin-glutamine from GIBCO) and ^3H-cholesterol at 5 μCi/ml. After 24 hours incubation in a moist 37° C. atmosphere with 5% CO2, the spent medium is removed, the cells are washed once with serum-free DMEM (0.1% fatty acid free bovine serum albumin replaces the FBS), and fresh serum-free medium (200 μl) is added to each well. After overnight incubation in the serum-free medium to allow the cellular cholesterol pools to equilibrate, the spent medium is removed, and fresh serum-free medium is added with/without CPT-cAMP (150 μM final). Eight-point serial titrations of the peptide/s being tested are added at this time (duplicate titrations in plain medium without cAMP and duplicate titrations in medium containing cAMP).
After 24 hours incubation in the various conditions, the medium is harvested from each well and 50 μl aliquots are counted. The cells are then lysed by adding 500 μl of HEPES/Triton lysis buffer to each well. The lysis is facilitated by freezing and thawing once. After thawing, the lysates are mixed well and 50 μl aliquots are counted.
The percent efflux of each peptide in each medium condition (±cAMP) is calculated by dividing the total counts in the medium by the sum of the total counts in the medium and lysate. The percent efflux seen with plain medium is subtracted from the percent efflux seen with the cAMP-stimulated efflux to yield the reported ABCA1-stimulated values. EC50 values are determined using PRISM software (Table 2).

For assay [2], the target named is ATP-binding cassette transporter A1 (ABCA1) (mouse, UniProt P41233 1-2261). Description: cell-based or functional assay.
Chain of ATP-binding cassette transporter A1 (ABCA1) (P41233 whole entry): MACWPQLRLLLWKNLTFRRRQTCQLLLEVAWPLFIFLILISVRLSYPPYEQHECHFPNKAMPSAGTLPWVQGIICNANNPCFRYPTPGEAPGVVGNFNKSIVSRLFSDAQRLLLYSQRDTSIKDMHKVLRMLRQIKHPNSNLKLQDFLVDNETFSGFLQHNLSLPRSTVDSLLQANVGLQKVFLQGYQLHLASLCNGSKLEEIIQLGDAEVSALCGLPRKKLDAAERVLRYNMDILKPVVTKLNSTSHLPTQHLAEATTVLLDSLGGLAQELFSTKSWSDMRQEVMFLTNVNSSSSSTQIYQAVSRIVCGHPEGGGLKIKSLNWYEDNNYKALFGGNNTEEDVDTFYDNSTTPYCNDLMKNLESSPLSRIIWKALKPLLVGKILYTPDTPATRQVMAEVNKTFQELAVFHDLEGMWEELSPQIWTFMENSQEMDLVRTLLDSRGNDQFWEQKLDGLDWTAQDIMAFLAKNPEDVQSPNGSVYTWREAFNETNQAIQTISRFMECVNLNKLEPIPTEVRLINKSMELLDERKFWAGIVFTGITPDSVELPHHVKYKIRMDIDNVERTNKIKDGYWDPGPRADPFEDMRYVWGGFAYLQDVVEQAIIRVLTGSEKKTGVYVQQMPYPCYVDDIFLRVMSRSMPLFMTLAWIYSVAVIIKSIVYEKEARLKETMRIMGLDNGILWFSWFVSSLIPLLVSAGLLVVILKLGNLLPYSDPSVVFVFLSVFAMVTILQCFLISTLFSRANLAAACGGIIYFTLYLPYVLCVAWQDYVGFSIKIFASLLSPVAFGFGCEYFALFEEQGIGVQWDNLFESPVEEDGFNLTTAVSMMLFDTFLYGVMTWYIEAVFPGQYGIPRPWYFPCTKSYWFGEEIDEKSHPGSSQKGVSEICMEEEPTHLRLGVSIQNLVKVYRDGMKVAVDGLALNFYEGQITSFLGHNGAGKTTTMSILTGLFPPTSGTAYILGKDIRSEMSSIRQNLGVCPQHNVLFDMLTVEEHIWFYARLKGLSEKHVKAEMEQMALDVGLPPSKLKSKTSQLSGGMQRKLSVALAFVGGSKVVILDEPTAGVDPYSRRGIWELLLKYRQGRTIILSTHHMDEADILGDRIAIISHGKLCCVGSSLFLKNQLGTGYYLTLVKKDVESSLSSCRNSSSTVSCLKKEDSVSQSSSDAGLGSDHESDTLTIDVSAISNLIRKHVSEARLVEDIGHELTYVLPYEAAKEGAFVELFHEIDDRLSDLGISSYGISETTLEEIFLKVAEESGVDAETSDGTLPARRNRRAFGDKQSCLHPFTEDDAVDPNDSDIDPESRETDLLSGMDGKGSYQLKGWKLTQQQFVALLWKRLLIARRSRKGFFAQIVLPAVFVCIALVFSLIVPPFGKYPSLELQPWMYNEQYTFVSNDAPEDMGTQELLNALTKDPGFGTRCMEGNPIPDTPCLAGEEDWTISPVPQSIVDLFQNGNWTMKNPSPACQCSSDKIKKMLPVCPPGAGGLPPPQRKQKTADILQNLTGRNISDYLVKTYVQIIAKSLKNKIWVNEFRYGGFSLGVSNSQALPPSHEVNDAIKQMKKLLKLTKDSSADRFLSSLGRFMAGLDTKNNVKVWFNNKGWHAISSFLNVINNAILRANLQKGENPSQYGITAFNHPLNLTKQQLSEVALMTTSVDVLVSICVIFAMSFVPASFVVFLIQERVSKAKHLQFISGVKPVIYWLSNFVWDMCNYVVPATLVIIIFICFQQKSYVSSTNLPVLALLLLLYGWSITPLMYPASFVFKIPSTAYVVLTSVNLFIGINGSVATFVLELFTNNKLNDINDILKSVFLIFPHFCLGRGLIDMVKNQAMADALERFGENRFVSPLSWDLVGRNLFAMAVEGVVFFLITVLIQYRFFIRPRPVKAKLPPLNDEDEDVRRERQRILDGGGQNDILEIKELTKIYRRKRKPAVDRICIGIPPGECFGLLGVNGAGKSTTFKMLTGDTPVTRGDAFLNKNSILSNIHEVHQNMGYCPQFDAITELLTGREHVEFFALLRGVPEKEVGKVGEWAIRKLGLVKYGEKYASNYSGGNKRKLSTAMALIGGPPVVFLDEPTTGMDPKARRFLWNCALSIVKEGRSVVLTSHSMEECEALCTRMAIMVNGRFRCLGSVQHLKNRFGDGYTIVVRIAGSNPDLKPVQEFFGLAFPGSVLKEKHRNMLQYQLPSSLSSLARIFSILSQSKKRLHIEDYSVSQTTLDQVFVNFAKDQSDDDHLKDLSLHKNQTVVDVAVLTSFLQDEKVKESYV

Where a SMILES comes first, the peptide text is derived from it. Bridges are numbered along the chain shown (N, C = ends). Where no end group is shown, it is not given here. [ ]: non-standard residue; d: D form. Gly(oct-7-en-1-yl) = C=CCCCCCC[C@H](N)C(=O)O; dGly(6-heptenyl) = C=CCCCCC[C@@H](N)C(=O)O; Ala(5-hexenyl) = C=CCCCCC[C@H](N)C(=O)O; dNle(6-vinyl) = C=CCCCC[C@@H](N)C(=O)O; Gla = N[C@@H](CC(C(=O)O)C(=O)O)C(=O)O; R5H = not defined here; Aib = CC(C)(N)C(=O)O Some results are limits rather than exact numbers.

T1 sequence (P41233 whole entry): as above

Consider “6 (Ac-PVLDEFREKLNE[Aib]LEALKQKLK; not fully specified (C-terminus)) [compound 6]”, for which the “ABCA1-DEPENDENT CHOLESTEROL EFFLUX, % at one concentration” value in assay [1] (AT 100 µM / @ 100) was found to be 6% AT 100 UM. In the case of “7 (Ac-PVLDEFREKLNE[Aib]LE[Aib]LKQKLK; not fully specified (C-terminus)) [compound 7]”, the “ABCA1-DEPENDENT CHOLESTEROL EFFLUX, % at one concentration” value in assay [1] (AT 150 µM) is reported as 5% AT 150 UM.

Consider “11 (Ac-PVLDEFREKLNE[R5H]LEA[R5H]KQKLK; staple 13-17; reading uncertain) [compound 11]”, for which, in assay [1] (AT 30 µM / @ 30), the “ABCA1-DEPENDENT CHOLESTEROL EFFLUX, % at one concentration” value is less than 2% AT 30 UM.

For the molecule “22 (Ac-PVLDEFREKLNEELEALKQXLK; not fully specified (residue 20, C-terminus); printed as PVLDEFREKLNEELEALKQR7HLK) [compound 22]”, the “ABCA1-DEPENDENT CHOLESTEROL EFFLUX, % at one concentration” value in assay [1] (AT 100 µM / @ 100) is recorded as 1.4% @ 100.

In general, EC50 refers to the concentration needed to bring the measured effect to its halfway point. Take `CCCCCCCCCCCCC(NC(=O)[C@H](CCC(=O)O)NC(=O)[C@H](CC(=O)O)NC(=O)[C@H](CC(C)C)NC(=O)[C@@H](NC(=O)[C@@H]1CCCN1C(C)=O)C(C)C)C(=O)N[C@@H](CCCNC(=N)N)C(=O)N[C@@H](CCC(=O)O)C(=O)N[C@@H](CCCCN)C(=O)N[C@@H](CC(C)C)C(=O)N[C@@H](CC(N)=O)C(=O)N[C@@H](CCC(=O)O)C(=O)N[C@@H](CCC(=O)O)C(=O)N[C@@H](CC(C)C)C(=O)N[C@@H](CCC(=O)O)C(=O)N[C@@H](C)C(=O)N[C@@H](CC(C)C)C(=O)N[C@@H](CCCCN)C(=O)N[C@@H](CCC(N)=O)C(=O)N[C@@H](CCCCN)C(=O)N[C@@H](CC(C)C)C(=O)N[C@@H](CCCCN)C(N)=O` (single isomer, unassigned) [SEQ ID NO 37, PVLDE-(RS)12H3-REKLNEELEALKQKLK]: the half-maximal effective concentration (EC50) in assay [1] is 100 to 400 nM. For `CCCCCCCCCCCCC(NC(=O)[C@H](CCC(=O)O)NC(=O)[C@H](CC(N)=O)NC(=O)[C@H](CC(C)C)NC(=O)[C@H](CCCCN)NC(=O)[C@H](CCC(=O)O)NC(=O)[C@H](CCCNC(=N)N)NC(=O)[C@H](Cc1ccccc1)NC(=O)[C@H](CCC(=O)O)NC(=O)[C@H](CC(=O)O)NC(=O)[C@H](CC(C)C)NC(=O)[C@@H](NC(=O)[C@@H]1CCCN1C(C)=O)C(C)C)C(=O)N[C@@H](CC(C)C)C(=O)N[C@@H](CCC(=O)O)C(=O)N[C@@H](C)C(=O)N[C@@H](CC(C)C)C(=O)N[C@@H](CCCCN)C(=O)N[C@@H](CCC(N)=O)C(=O)N[C@@H](CCCCN)C(=O)N[C@@H](CC(C)C)C(=O)N[C@@H](CCCCN)C(N)=O` (single isomer, unassigned) [SEQ ID NO 38, PVLDEFREKLNE-(RS)12H3-LEALKQKLK], in assay [1], the EC50 fell in the range of 200 to 400 nM. With `CC(=O)N1CCC[C@H]1C(=O)N[C@H](C(=O)N[C@@H](CC(C)C)C(=O)N[C@@H](CC(=O)O)C(=O)N[C@@H](CCC(=O)O)C(=O)N[C@@H](Cc1ccccc1)C(=O)N[C@@H](CCCNC(=N)N)C(=O)N[C@@H](CCC(=O)O)C(=O)N[C@@H](CCCCN)C(=O)N[C@@H](CC(C)C)C(=O)N[C@@H](CC(N)=O)C(=O)N[C@@H](CCC(=O)O)C(=O)NC(C)(C)C(=O)N[C@@H](CC(C)C)C(=O)N[C@@H](CC(C(=O)O)C(=O)O)C(=O)N[C@@H](C)C(=O)N[C@@H](CC(C)C)C(=O)N[C@@H](CCCCN)C(=O)N[C@@H](CCC(N)=O)C(=O)N[C@@H](CCCCN)C(=O)N[C@@H](CC(C)C)C(=O)N[C@@H](CCCCN)C(N)=O)C(C)C` [SEQ ID NO 4, PVLDEFREKLNEAIBLGLAALKQKLK] (Ac-PVLDEFREKLNE[Aib]L[Gla]ALKQKLK-NH2; C-terminus assumed), the EC50 in assay [1] was 41000 nM. For `C=CCCCCC[C@H](NC(=O)[C@H](CCC(=O)O)NC(=O)[C@H](CC(N)=O)NC(=O)[C@H](CC(C)C)NC(=O)[C@H](CCCCN)NC(=O)[C@H](CCC(=O)O)NC(=O)[C@H](CCCN=C(N)N)NC(=O)[C@@H](CCCCC=C)NC(=O)[C@H](CCC(=O)O)NC(=O)[C@H](CC(=O)O)NC(=O)[C@H](CC(C)C)NC(=O)[C@@H](NC(=O)[C@@H]1CCCN1C(C)=O)C(C)C)C(=O)N[C@@H](CC(C)C)C(=O)N[C@@H](CCC(=O)O)C(=O)N[C@@H](C)C(=O)N[C@@H](CC(C)C)C(=O)N[C@@H](CCCCN)C(=O)N[C@@H](CCC(N)=O)C(=O)N[C@@H](CCCCN)C(=O)N[C@@H](CC(C)C)C(=O)N[C@@H](CCCCN)C(N)=O` [SEQ ID NO 13, PVLDER6HREKLNES7HLEALKQKLK] (Ac-PVLDE[dNle(6-vinyl)]REKLNE[Ala(5-hexenyl)]LEALKQKLK-NH2), the concentration for a half-maximal effect (EC50) in assay [1] is 400 nM. Turning to `C=CCCCC[C@@H](NC(=O)[C@H](CCC(=O)O)NC(=O)[C@H](CC(N)=O)NC(=O)[C@H](CC(C)C)NC(=O)[C@H](CCCCN)NC(=O)[C@H](CCC(=O)O)NC(=O)[C@H](CCCN=C(N)N)NC(=O)[C@H](Cc1ccccc1)NC(=O)[C@H](CCC(=O)O)NC(=O)[C@H](CC(=O)O)NC(=O)[C@H](CC(C)C)NC(=O)[C@@H](NC(=O)[C@@H]1CCCN1C(C)=O)C(C)C)C(=O)N[C@@H](CC(C)C)C(=O)N[C@@H](CCC(=O)O)C(=O)N[C@@H](C)C(=O)N[C@@H](CC(C)C)C(=O)N[C@@H](CCCCN)C(=O)N[C@@H](CCC(N)=O)C(=O)N[C@@H](CCCCN)C(=O)N[C@@H](CC(C)C)C(=O)N[C@@H](CCCCN)C(N)=O` [SEQ ID NO 18, PVLDEFREKLNER6HLEALKQKLK] (Ac-PVLDEFREKLNE[dNle(6-vinyl)]LEALKQKLK-NH2), in assay [1], the EC50 was determined as 18000 nM. Take `C=CCCCCC[C@@H](NC(=O)[C@H](CCC(=O)O)NC(=O)[C@H](CC(N)=O)NC(=O)[C@H](CC(C)C)NC(=O)[C@H](CCCCN)NC(=O)[C@H](CCC(=O)O)NC(=O)[C@H](CCCN=C(N)N)NC(=O)[C@H](Cc1ccccc1)NC(=O)[C@H](CCC(=O)O)NC(=O)[C@H](CC(=O)O)NC(=O)[C@H](CC(C)C)NC(=O)[C@@H](NC(=O)[C@@H]1CCCN1C(C)=O)C(C)C)C(=O)N[C@@H](CC(C)C)C(=O)N[C@@H](CCC(=O)O)C(=O)N[C@@H](C)C(=O)N[C@@H](CC(C)C)C(=O)N[C@@H](CCCCN)C(=O)N[C@@H](CCC(N)=O)C(=O)N[C@@H](CCCCN)C(=O)N[C@@H](CC(C)C)C(=O)N[C@@H](CCCCN)C(N)=O` [SEQ ID NO 21, PVLDEFREKLNER7HLEALKQKLK] (Ac-PVLDEFREKLNE[dGly(6-heptenyl)]LEALKQKLK-NH2): the EC50 in assay [1] is 7200 nM. In the case of `C=CCCCCC[C@H](NC(=O)[C@H](CCC(=O)O)NC(=O)[C@H](CC(N)=O)NC(=O)[C@H](CC(C)C)NC(=O)[C@H](CCCCN)NC(=O)[C@H](CCC(=O)O)NC(=O)[C@H](CCCNC(=N)N)NC(=O)[C@H](Cc1ccccc1)NC(=O)[C@H](CCC(=O)O)NC(=O)[C@H](CC(=O)O)NC(=O)[C@H](CC(C)C)NC(=O)[C@@H](NC(=O)[C@@H]1CCCN1C(C)=O)C(C)C)C(=O)N[C@@H](CC(C)C)C(=O)N[C@@H](CCC(=O)O)C(=O)N[C@@H](C)C(=O)N[C@@H](CC(C)C)C(=O)N[C@@H](CCCCN)C(=O)N[C@@H](CCC(N)=O)C(=O)N[C@@H](CCCCN)C(=O)N[C@@H](CC(C)C)C(=O)N[C@@H](CCCCN)C(N)=O` [SEQ ID NO 29, PVLDEFREKLNES7HLEALKQKLK] (Ac-PVLDEFREKLNE[Ala(5-hexenyl)]LEALKQKLK-NH2), in assay [1], the EC50 amounted to 2000 nM. On the same count and under the same terms, the result for `C=CCCCCCC[C@H](NC(=O)[C@H](CCC(=O)O)NC(=O)[C@H](CC(N)=O)NC(=O)[C@H](CC(C)C)NC(=O)[C@H](CCCCN)NC(=O)[C@H](CCC(=O)O)NC(=O)[C@H](CCCN=C(N)N)NC(=O)[C@H](Cc1ccccc1)NC(=O)[C@H](CCC(=O)O)NC(=O)[C@H](CC(=O)O)NC(=O)[C@H](CC(C)C)NC(=O)[C@@H](NC(=O)[C@@H]1CCCN1C(C)=O)C(C)C)C(=O)N[C@@H](CC(C)C)C(=O)N[C@@H](CCC(=O)O)C(=O)N[C@@H](C)C(=O)N[C@@H](CC(C)C)C(=O)N[C@@H](CCCCN)C(=O)N[C@@H](CCC(N)=O)C(=O)N[C@@H](CCCCN)C(=O)N[C@@H](CC(C)C)C(=O)N[C@@H](CCCCN)C(N)=O` [SEQ ID NO 32, PVLDEFREKLNES8HLEALKQKLK] (Ac-PVLDEFREKLNE[Gly(oct-7-en-1-yl)]LEALKQKLK-NH2) reads 600 nM.

B1: R5H [K9-E13]R5H OPEN (peptide)
peptide: Ac-PVLDEFRE[R5H]LNE[R5H]LEALKQKLK
modifications: reading uncertain
For B1, the “ABCA1-dependent cholesterol efflux EC50” value in assay [2] was 46000 nM.

B2: R5H [E13-L17]R5H OPEN (peptide)
peptide: Ac-PVLDEFREKLNE[R5H]LEA[R5H]KQKLK
modifications: reading uncertain
Regarding B2, in assay [2], the “ABCA1-dependent cholesterol efflux, % at 30 uM” value is less than 3%.

B3: D-CONS[R7H^13] (peptide)
peptide: Ac-[dP][dV][dL][dD][dE][dF][dR][dE][dK][dL][dN][dE][dGly(6-heptenyl)][dL][dE][dA][dL][dK][dQ][dK][dL][dK]
B3: the “ABCA1-dependent cholesterol efflux EC50” value in assay [2] is 1100 nM.
